Experimental findings from the supplement of paper PMC11208160 are described below.

The data set in a line: recombinant barcode read abundance after kanamycin selection (control-corrected) (log10(CPM+1)); higher = more efficient recombination; sequences stand for … in AGTGCAGAGAAAATCGGCCAGTTTTCTCTGCCTGCAGTCCGCATGCCGT…ATTTATGCAGCGGACTGCCTTTCTCCCAAAGTGATAAACCGGACAGTATCATGGACCGGTTTTCCCGGTAATCCGTATTTGCAAGGTTGGTTTCACT; site = the 11-nt target. As to the method: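 Same pooled E. coli target screen (IS621 bridge recombinase, kanamycin selection, control-corrected CPM, mean of 2 biological replicates). Here the two core-binding nucleotides of the LTG and RTG of the bridge RNA target-binding loop are mutated. Target and donor CT cores are held constant, and the other 9 guide positions match the target. The target is read from the library oligo sequence. Molecule = full bridge RNA written as DNA: nt 1-80 from the library oligo, rest WT scaffold.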
In the case of “AGGCCTCTCTGGGTTCTAACCTGTTGCCTGA [AGGCCTCCTAG_LTGcore_TC_RTGcore_TC] (site AGGCCTCCTAG) (LTG core: TC, RTG core: TC)”, the “recombinant barcode read abundance (log10)” value was found to be 0.047.

As to “AGGCCTCTTTGGGTTCTAACCTGTTGCCTAA [AGGCCTCCTAG_LTGcore_TT_RTGcore_TT] (site AGGCCTCCTAG) (LTG core: TT, RTG core: TT)”, the “recombinant barcode read abundance (log10)” value came to 0.196.

For “AGGCCTCTTTGGGTTCTAACCTGTTGCCTAG [AGGCCTCCTAG_LTGcore_TT_RTGcore_CT] (site AGGCCTCCTAG) (LTG core: TT, RTG core: CT)”, the “recombinant barcode read abundance (log10)” value came to 0.103.

Take “AGGCGGGCATGGGTTCTAACCTGTTGCGGAG [AGGCGGGCTCC_LTGcore_CA_RTGcore_CT] (site AGGCGGGCTCC) (LTG core: CA, RTG core: CT)”: the “recombinant barcode read abundance (log10)” value is 2.3.

“AGGCGGGCATGGGTTCTAACCTGTTGCGGTG [AGGCGGGCTCC_LTGcore_CA_RTGcore_CA] (site AGGCGGGCTCC) (LTG core: CA, RTG core: CA)”: the “recombinant barcode read abundance (log10)” value is 0.776.

As for “AGGCGGGCGTGGGTTCTAACCTGTTGCGGCG [AGGCGGGCTCC_LTGcore_CG_RTGcore_CG] (site AGGCGGGCTCC) (LTG core: CG, RTG core: CG)”, the “recombinant barcode read abundance (log10)” value was found to be 0.0653.

On to “AGGCGGGCTTGGGTTCTAACCTGTTGCGGAA [AGGCGGGCTCC_LTGcore_CT_RTGcore_TT] (site AGGCGGGCTCC) (LTG core: CT, RTG core: TT)”, for which the “recombinant barcode read abundance (log10)” value turned out to be 0.532.

As for “AGGCGGGCTTGGGTTCTAACCTGTTGCGGGG [AGGCGGGCTCC_LTGcore_CT_RTGcore_CC] (site AGGCGGGCTCC) (LTG core: CT, RTG core: CC)”, the “recombinant barcode read abundance (log10)” value came to 0.756.

As for “AGGCGGGGGTGGGTTCTAACCTGTTGCGGCC [AGGCGGGCTCC_LTGcore_GG_RTGcore_GG] (site AGGCGGGCTCC) (LTG core: GG, RTG core: GG)”, the “recombinant barcode read abundance (log10)” value amounted to 0.0346.

For the sequence “AGGCGGGTATGGGTTCTAACCTGTTGCGGAG [AGGCGGGCTCC_LTGcore_TA_RTGcore_CT] (site AGGCGGGCTCC) (LTG core: TA, RTG core: CT)”, the “recombinant barcode read abundance (log10)” value is 0.232.

“AGGCGGGTTTGGGTTCTAACCTGTTGCGGAG [AGGCGGGCTCC_LTGcore_TT_RTGcore_CT] (site AGGCGGGCTCC) (LTG core: TT, RTG core: CT)”: the “recombinant barcode read abundance (log10)” value was 0.475.

On to “AGGCGGTACTGGGTTCTAACCTGTTGCTTAG [AGGCGGTCTAA_LTGcore_AC_RTGcore_CT] (site AGGCGGTCTAA) (LTG core: AC, RTG core: CT)”, for which the “recombinant barcode read abundance (log10)” value was 0.272.

As to “AGGCGGTATTGGGTTCTAACCTGTTGCTTAT [AGGCGGTCTAA_LTGcore_AT_RTGcore_AT] (site AGGCGGTCTAA) (LTG core: AT, RTG core: AT)”, the “recombinant barcode read abundance (log10)” value was determined as 0.109.

With “AGGCGGTCCTGGGTTCTAACCTGTTGCTTAG [AGGCGGTCTAA_LTGcore_CC_RTGcore_CT] (site AGGCGGTCTAA) (LTG core: CC, RTG core: CT)”, the “recombinant barcode read abundance (log10)” value was 0.341.

In the case of “AGGCGGTCCTGGGTTCTAACCTGTTGCTTGG [AGGCGGTCTAA_LTGcore_CC_RTGcore_CC] (site AGGCGGTCTAA) (LTG core: CC, RTG core: CC)”, the “recombinant barcode read abundance (log10)” value is 0.334.

As for “AGGCGGTCGTGGGTTCTAACCTGTTGCTTAG [AGGCGGTCTAA_LTGcore_CG_RTGcore_CT] (site AGGCGGTCTAA) (LTG core: CG, RTG core: CT)”, the “recombinant barcode read abundance (log10)” value amounted to 0.398.

In the case of “AGGCGGTCTTGGGTTCTAACCTGTTGCTTCA [AGGCGGTCTAA_LTGcore_CT_RTGcore_TG] (site AGGCGGTCTAA) (LTG core: CT, RTG core: TG)”, the “recombinant barcode read abundance (log10)” value amounted to 0.171.

For “AGGCGGTCTTGGGTTCTAACCTGTTGCTTCG [AGGCGGTCTAA_LTGcore_CT_RTGcore_CG] (site AGGCGGTCTAA) (LTG core: CT, RTG core: CG)”, the “recombinant barcode read abundance (log10)” value turned out to be 0.117.

On to “AGGCGGTCTTGGGTTCTAACCTGTTGCTTTA [AGGCGGTCTAA_LTGcore_CT_RTGcore_TA] (site AGGCGGTCTAA) (LTG core: CT, RTG core: TA)”, for which the “recombinant barcode read abundance (log10)” value worked out at 0.353.

Turning to “AGGCGGTGTTGGGTTCTAACCTGTTGCTTAC [AGGCGGTCTAA_LTGcore_GT_RTGcore_GT] (site AGGCGGTCTAA) (LTG core: GT, RTG core: GT)”, the “recombinant barcode read abundance (log10)” value is 0.278.

In the case of “AGGCGGTTATGGGTTCTAACCTGTTGCTTAG [AGGCGGTCTAA_LTGcore_TA_RTGcore_CT] (site AGGCGGTCTAA) (LTG core: TA, RTG core: CT)”, the “recombinant barcode read abundance (log10)” value was 0.168.

With “AGGCGGTTATGGGTTCTAACCTGTTGCTTTA [AGGCGGTCTAA_LTGcore_TA_RTGcore_TA] (site AGGCGGTCTAA) (LTG core: TA, RTG core: TA)”, the “recombinant barcode read abundance (log10)” value turned out to be 0.025.

As to “AGGCGGTTCTGGGTTCTAACCTGTTGCTTAG [AGGCGGTCTAA_LTGcore_TC_RTGcore_CT] (site AGGCGGTCTAA) (LTG core: TC, RTG core: CT)”, the “recombinant barcode read abundance (log10)” value was determined as 0.

For “AGGCGGTTCTGGGTTCTAACCTGTTGCTTGA [AGGCGGTCTAA_LTGcore_TC_RTGcore_TC] (site AGGCGGTCTAA) (LTG core: TC, RTG core: TC)”, the “recombinant barcode read abundance (log10)” value worked out at 0.191.

Consider “AGGCGGTTTTGGGTTCTAACCTGTTGCTTAG [AGGCGGTCTAA_LTGcore_TT_RTGcore_CT] (site AGGCGGTCTAA) (LTG core: TT, RTG core: CT)”, for which the “recombinant barcode read abundance (log10)” value turned out to be 0.104.

Turning to “AGTCTTAACTGGGTTCTAACCTGTTGCCAAG [AGTCTTACTTG_LTGcore_AC_RTGcore_CT] (site AGTCTTACTTG) (LTG core: AC, RTG core: CT)”, the “recombinant barcode read abundance (log10)” value worked out at 0.111.

For the sequence “AGTCTTAACTGGGTTCTAACCTGTTGCCAGT [AGTCTTACTTG_LTGcore_AC_RTGcore_AC] (site AGTCTTACTTG) (LTG core: AC, RTG core: AC)”, the “recombinant barcode read abundance (log10)” value was 0.129.

On to “AGTCTTAAGTGGGTTCTAACCTGTTGCCACT [AGTCTTACTTG_LTGcore_AG_RTGcore_AG] (site AGTCTTACTTG) (LTG core: AG, RTG core: AG)”, for which the “recombinant barcode read abundance (log10)” value was 0.0305.

Take “AGTCTTACCTGGGTTCTAACCTGTTGCCAAG [AGTCTTACTTG_LTGcore_CC_RTGcore_CT] (site AGTCTTACTTG) (LTG core: CC, RTG core: CT)”: the “recombinant barcode read abundance (log10)” value was found to be 0.0498.

Take “AGTCTTACTTGGGTTCTAACCTGTTGCCATG [AGTCTTACTTG_LTGcore_CT_RTGcore_CA] (site AGTCTTACTTG) (LTG core: CT, RTG core: CA)”: the “recombinant barcode read abundance (log10)” value was 0.0163.

Take “AGTCTTAGATGGGTTCTAACCTGTTGCCAAG [AGTCTTACTTG_LTGcore_GA_RTGcore_CT] (site AGTCTTACTTG) (LTG core: GA, RTG core: CT)”: the “recombinant barcode read abundance (log10)” value was 0.23.

Turning to “AGTCTTAGATGGGTTCTAACCTGTTGCCATC [AGTCTTACTTG_LTGcore_GA_RTGcore_GA] (site AGTCTTACTTG) (LTG core: GA, RTG core: GA)”, the “recombinant barcode read abundance (log10)” value is 0.0257.

As to “AGTCTTAGCTGGGTTCTAACCTGTTGCCAAG [AGTCTTACTTG_LTGcore_GC_RTGcore_CT] (site AGTCTTACTTG) (LTG core: GC, RTG core: CT)”, the “recombinant barcode read abundance (log10)” value came to 0.0805.

Regarding “AGTCTTAGGTGGGTTCTAACCTGTTGCCAAG [AGTCTTACTTG_LTGcore_GG_RTGcore_CT] (site AGTCTTACTTG) (LTG core: GG, RTG core: CT)”, the “recombinant barcode read abundance (log10)” value was 0.

In the case of “AGTCTTAGTTGGGTTCTAACCTGTTGCCAAG [AGTCTTACTTG_LTGcore_GT_RTGcore_CT] (site AGTCTTACTTG) (LTG core: GT, RTG core: CT)”, the “recombinant barcode read abundance (log10)” value turned out to be 0.0538.

Consider “AGTCTTATCTGGGTTCTAACCTGTTGCCAAG [AGTCTTACTTG_LTGcore_TC_RTGcore_CT] (site AGTCTTACTTG) (LTG core: TC, RTG core: CT)”, for which the “recombinant barcode read abundance (log10)” value came out at 0.0237.

For the sequence “ATGCTTTAATGGGTTCTAACCTGTTGCCTTT [ATGCTTTCTAG_LTGcore_AA_RTGcore_AA] (site ATGCTTTCTAG) (LTG core: AA, RTG core: AA)”, the “recombinant barcode read abundance (log10)” value was 0.125.

Take “ATGCTTTACTGGGTTCTAACCTGTTGCCTGT [ATGCTTTCTAG_LTGcore_AC_RTGcore_AC] (site ATGCTTTCTAG) (LTG core: AC, RTG core: AC)”: the “recombinant barcode read abundance (log10)” value was determined as 0.0458.

In the case of “ATGCTTTCTTGGGTTCTAACCTGTTGCCTAA [ATGCTTTCTAG_LTGcore_CT_RTGcore_TT] (site ATGCTTTCTAG) (LTG core: CT, RTG core: TT)”, the “recombinant barcode read abundance (log10)” value was found to be 0.322.

Consider “ATGCTTTCTTGGGTTCTAACCTGTTGCCTCA [ATGCTTTCTAG_LTGcore_CT_RTGcore_TG] (site ATGCTTTCTAG) (LTG core: CT, RTG core: TG)”, for which the “recombinant barcode read abundance (log10)” value turned out to be 0.153.

Regarding “ATGCTTTCTTGGGTTCTAACCTGTTGCCTCC [ATGCTTTCTAG_LTGcore_CT_RTGcore_GG] (site ATGCTTTCTAG) (LTG core: CT, RTG core: GG)”, the “recombinant barcode read abundance (log10)” value was 0.127.
